Test results: patent publication US20200016122A1, “METHOD FOR REDUCING ITCHING IN ATOPIC DERMATITIS” (priority 2018, published 2020)

Assays:
Kwl:ICR mice = details: mouse, in vivo, 14 days
Description: (§1) The present inventors performed single oral dose toxicity tests (2,000 mg/kg) for N-nonanoyltryptamine over 14 days using Kwl:ICR mice. […] Patch tests were performed on human skin, the skin irritation index was 0.0, and the safety was confirmed (LIFE SCIENCE LABORATORIES, LTD., June 2011).

goats = type: in vivo; details: 1.0 mg/50 kg/day over 4 years
human skin = experiment: patch test on human skin; type: in vivo; details: patch tests on human skin
Description: as §1

Question: For `CCCCCCCCC(=O)NCCc1c[nH]c2ccccc12` [N-nonanoyltryptamine], which lethal dose (Kwl:ICR mice) is on record?
Answer: ≥ 2,000 mg/kg

Question: What about the breeding effect (goats) of the same compound?
Answer: strong breeding effect

Question: What about the skin irritation index (human skin) of the same compound?
Answer: 0.0
